Reference: patent US10729768B2, “Combination of anti-CD20 antibody and PI3 kinase selective inhibitor” (TG Therapeutics, Inc., priority 2012, dated 2020)

How the values were obtained:
Type in all cases: cell-based
CD20+ cells = assay: LPS-induced proliferation in HWB, flow cytometry, CD20; details: Homo sapiens, 72 hrs
Description: In these experiments, 250 μl of diluted (1:3.5 with RPMI-HG Media) HWB sample was treated with either S-isomer of a compound of formula A (10 μM to 0.1 μM), UBX (100 μg/ml to 0.1 μg/ml) or UBX with S-isomer of a compound of formula A at 1000 nM for 15 minutes followed by 20 μg/ml LPS induction and incubated for 72 hrs at 37° C. and 5% CO2. 20 μl of treated sample was taken in a 1.5 ml centrifuge tube and labeled with CD20 FITC and CD19 PE antibody and incubated in the dark for 1 hour at RT. 1 ml of RBC lysing solution was added and tubes were centrifuged at 3000 rpm for 10 minutes. Supernatant was aspirated, and 250 μl of PBS was added to the pellet. Tubes were vortexed, and 5000 events were acquired on a Guava® easyCyte™ flow cytometer and analyzed with Incyte Software.
Gated population of lymphocytes positive cells were further analyzed for CD19 and CD20. Cells positive for CD19 and/or CD20 were calculated, and data were expressed as the percentage positive cells in the population. The loss of positive population from control with LPS induction was calculated and expressed as % inhibition with respect to control.

Daudi cells = assay: cell cycle assay, flow cytometry
Description: (§1) A cell cycle assay reagent (Millipore) was used to determine the effect of S-isomer of a compound of formula A, UBX, and combinations thereof on the cell cycle in cancerous cells. […] The cells were transferred to microfuge tubes to receive 50 μl of cell cycle reagent and incubated for 30 minutes at RT away from light. Cells were then diluted with 300-400 μl PBS, and a minimum of 10,000 events were acquired on a Guava® easyCyte™ flow cytometer. The data was analyzed with Express Pro software and the percentage of the cell population in different cell cycle stages with respect to control was presented in histograms.

Raji Cells [1] = assay: cell cycle assay, flow cytometry
Description: as §1

[2] = tested on: U266B1, DB, Raji, and Daudi cells; assay: cell cycle assay, flow cytometry, cell-lines tested; details: 72 hrs
Description: A cell cycle assay reagent (Millipore) was used to determine the effect of S-isomer of a compound of formula A, UBX, and combinations thereof on the cell cycle in cancerous cells. In these experiments, cells were plated in a 6-well plate at a concentration of 0.5×10^6 cells/ml, treated with either S-isomer of a compound of formula A (10 μM to 0.1 μM), UBX (100 μg/ml to 0.1 μg/ml), or UBX with S-isomer of a compound of formula A at 1000 nM, and incubated for 72 hrs at 37° C. and 5% CO2. The cells were transferred to microfuge tubes to receive 50 μl of cell cycle reagent and incubated for 30 minutes at RT away from light. Cells were then diluted with 300-400 μl PBS, and a minimum of 10,000 events were acquired on a Guava® easyCyte™ flow cytometer. The data was analyzed with Express Pro software and the percentage of the cell population in different cell cycle stages with respect to control was presented in histograms.

LY1 Cells = assay: in situ caspase-3 kit, caspase 3 activity and combination index (Example 5); details: LY1 cells, 24 hrs
Description: (§2) In order to determine the effect of S-isomer of a compound of formula A, UBX, and combinations thereof on apoptosis in cancer cells, an in situ caspase-3 kit (Millipore) was used. CELLS were plated in a 6 well plate at a concentration of 0.5×10^6 cells/ml, treated with either S-isomer of a compound of formula A (200-5000 nM), UBX (10,000 ng/ml to 10 ng/ml), or UBX with S-isomer of a compound of formula A (as indicated), and incubated for 24 hrs at 37° C. and 5% CO2. The cells were then transferred to microfuge tubes to receive 10 μl of freshly prepared FLICA™ reagent and incubated for 1 hour at 37° C. and 5% CO2 away from light. After extensive washes with wash buffer, test samples were adjusted to equalize the number of cells in PBS. 100 μl of each cell suspension was transferred to black 96-well plates in duplicates, and the fluorescence was read at an excitation wavelength of 490 nm and an emission wavelength of 520 nm in a plate reader. The fluorescence intensity for a DMSO control was subtracted from that of test compounds. Data was expressed as caspase-3 activity a combination index (C.I.) calculated.

Raji Cells [3] = assay: as above; details: Raji cells, 24 hrs
Description: as §2

B-cells = assay: cytotoxicity to B-cells; details: concentrations up to 10 μM

With `CC(C)Oc1ccc(-c2nn([C@@H](C)c3oc4ccc(F)cc4c(=O)c3-c3cccc(F)c3)c3ncnc(N)c23)cc1F` [S-isomer, (S)-2-(1-(4-amino-3-(3-fluoro-4-isopropoxyphenyl)-1H-pyrazolo[3,4-d]pyrimidin-1-yl)ethyl)-6-fluoro-3-(3-fluorophenyl)-4H-chromen-4-one] the inhibition at 1 µM (CD20+ cells) was roughly 40%, the “G0/G1, percentage of the cell population” value (Daudi cells; 72 h, 0.1 nM) was 49.56 and the “G2/M, percentage of the cell population” value (Daudi cells; 72 h, 0.1 nM) was 33.23. The “S, percentage of the cell population” value (Daudi cells; 72 h, 0.1 nM) was 14.13, the “Sub G0, percentage of the cell population” value (“Sub G0, percentage” for short) (Daudi cells; 72 h, 0.1 nM) was 0.34 and the “G0/G1, percentage of the cell population” value (Daudi cells; 72 h, 1 nM) was 48.11. For the same molecule, the “G2/M, percentage of the cell population” value (Daudi cells; 72 h, 1 nM) was 36.75, the “S, percentage of the cell population” value (Daudi cells; 72 h, 1 nM) was 13.27 and the “Sub G0, percentage” value (Daudi cells; 72 h, 1 nM) was 0.74. For the same molecule, the “G0/G1, percentage of the cell population” value (Daudi cells; 72 h, 10 nM) was 46.84, the “G2/M, percentage of the cell population” value (Daudi cells; 72 h, 10 nM) was 37.79 and the “S, percentage of the cell population” value (Daudi cells; 72 h, 10 nM) was 12.55. For the same molecule, the “Sub G0, percentage” value (Daudi cells; 72 h, 10 nM) was 1.68, the “G0/G1, percentage of the cell population” value (Daudi cells; 72 h, 100 nM) was 47.39 and the “G2/M, percentage of the cell population” value (Daudi cells; 72 h, 100 nM) was 38.05. The “S, percentage of the cell population” value (Daudi cells; 72 h, 100 nM) was 11.33, the “Sub G0, percentage” value (Daudi cells; 72 h, 100 nM) was 1.30 and the “G0/G1, percentage of the cell population” value (Daudi cells; 72 h, 1000 nM) was 48.27. For the same molecule, the “G2/M, percentage of the cell population” value (Daudi cells; 72 h, 1000 nM) was 40.10, the “S, percentage of the cell population” value (Daudi cells; 72 h, 1000 nM) was 7.91 and the “Sub G0, percentage” value (Daudi cells; 72 h, 1000 nM) was 2.22. For the same molecule, the “G0/G1, percentage of the cell population” value (Daudi cells; 72 h, 10,000 nM) was 2.53, the “G2/M, percentage of the cell population” value (Daudi cells; 72 h, 10,000 nM) was 65.03 and the “S, percentage of the cell population” value (Daudi cells; 72 h, 10,000 nM) was 21.92. For the same molecule, the “Sub G0, percentage” value (Daudi cells; 72 h, 10,000 nM) was 5.01, the “G0/G1, percentage of the cell population” value (Raji Cells [1]; 72 h, 0.1 nM) was 56.54 and the “G2/M, percentage of the cell population” value (Raji Cells [1]; 72 h, 0.1 nM) was 33.63. The “S, percentage of the cell population” value (Raji Cells [1]; 72 h, 0.1 nM) was 8.38, the “Sub G0, percentage” value (Raji Cells [1]; 72 h, 0.1 nM) was 1.32 and the “G0/G1, percentage of the cell population” value (Raji Cells [1]; 72 h, 1 nM) was 56.93. For the same molecule, the “G2/M, percentage of the cell population” value (Raji Cells [1]; 72 h, 1 nM) was 34.13, the “S, percentage of the cell population” value (Raji Cells [1]; 72 h, 1 nM) was 5.51 and the “Sub G0, percentage” value (Raji Cells [1]; 72 h, 1 nM) was 1.89. For the same molecule, the “G0/G1, percentage of the cell population” value (Raji Cells [1]; 72 h, 10 nM) was 55.96, the “G2/M, percentage of the cell population” value (Raji Cells [1]; 72 h, 10 nM) was 34.81 and the “S, percentage of the cell population” value (Raji Cells [1]; 72 h, 10 nM) was 5.80. For the same molecule, the “Sub G0, percentage” value (Raji Cells [1]; 72 h, 10 nM) was 1.06, the “G0/G1, percentage of the cell population” value (Raji Cells [1]; 72 h, 100 nM) was 52.81 and the “G2/M, percentage of the cell population” value (Raji Cells [1]; 72 h, 100 nM) was 37.80. The “S, percentage of the cell population” value (Raji Cells [1]; 72 h, 100 nM) was 6.72, the “Sub G0, percentage” value (Raji Cells [1]; 72 h, 100 nM) was 1.04 and the “G0/G1, percentage of the cell population” value (Raji Cells [1]; 72 h, 1000 nM) was 52.04. For the same molecule, the “G2/M, percentage of the cell population” value (Raji Cells [1]; 72 h, 1000 nM) was 41.21, the “S, percentage of the cell population” value (Raji Cells [1]; 72 h, 1000 nM) was 3.92 and the “Sub G0, percentage” value (Raji Cells [1]; 72 h, 1000 nM) was 1.29. For the same molecule, the “G0/G1, percentage of the cell population” value (Raji Cells [1]; 72 h, 10,000 nM) was 10.12, the “G2/M, percentage of the cell population” value (Raji Cells [1]; 72 h, 10,000 nM) was 58.09 and the “S, percentage of the cell population” value (Raji Cells [1]; 72 h, 10,000 nM) was 23.17. The “Sub G0, percentage” value (Raji Cells [1]; 72 h, 10,000 nM) was 4.90, the cell cycle effect [2] was “dose-dependent G2/M arrest” and the “Caspase 3 Activity” value (LY1 Cells; S-isomer 200 nM) was 0.06. The “Caspase 3 Activity” value (LY1 Cells; S-isomer 1000 nM) was 0.17, the “Caspase 3 Activity” value (LY1 Cells; S-isomer 5000 nM) was 0.61 and the “Caspase 3 Activity” value (Raji Cells [3]; S-isomer 200 nM) was 0.36. The “Caspase 3 Activity” value (Raji Cells [3]; S-isomer 1000 nM) was 0.56, the “Caspase 3 Activity” value (Raji Cells [3]; S-isomer 5000 nM) was 0.80 and the “cytotoxic to B-cells” value (B-cells) was “not cytotoxic”.
